In US20100105655A1, “NOVEL COMPOUNDS 515” (ASTRAZENECA AB, priority 2008, published 2010) one finds IC50 data, which are given here for twelve compounds.

This assay deals with T1, IGFR kinase (Homo sapiens, UniProt P08069).
T1 construct: purchased Millipore
Nature of the assay: Enzyme assay (c), IGFR kinase, Caliper LabChip. In kind it is biochemical.

Where [1] appears, read: 30 nM IGFR kinase, 6 uM ATP, 3 uM peptide mix, read-out: IGFR IC50.

Where two headings read alike, the source gives them in different places.

T1 sequence (P08069 31-1367): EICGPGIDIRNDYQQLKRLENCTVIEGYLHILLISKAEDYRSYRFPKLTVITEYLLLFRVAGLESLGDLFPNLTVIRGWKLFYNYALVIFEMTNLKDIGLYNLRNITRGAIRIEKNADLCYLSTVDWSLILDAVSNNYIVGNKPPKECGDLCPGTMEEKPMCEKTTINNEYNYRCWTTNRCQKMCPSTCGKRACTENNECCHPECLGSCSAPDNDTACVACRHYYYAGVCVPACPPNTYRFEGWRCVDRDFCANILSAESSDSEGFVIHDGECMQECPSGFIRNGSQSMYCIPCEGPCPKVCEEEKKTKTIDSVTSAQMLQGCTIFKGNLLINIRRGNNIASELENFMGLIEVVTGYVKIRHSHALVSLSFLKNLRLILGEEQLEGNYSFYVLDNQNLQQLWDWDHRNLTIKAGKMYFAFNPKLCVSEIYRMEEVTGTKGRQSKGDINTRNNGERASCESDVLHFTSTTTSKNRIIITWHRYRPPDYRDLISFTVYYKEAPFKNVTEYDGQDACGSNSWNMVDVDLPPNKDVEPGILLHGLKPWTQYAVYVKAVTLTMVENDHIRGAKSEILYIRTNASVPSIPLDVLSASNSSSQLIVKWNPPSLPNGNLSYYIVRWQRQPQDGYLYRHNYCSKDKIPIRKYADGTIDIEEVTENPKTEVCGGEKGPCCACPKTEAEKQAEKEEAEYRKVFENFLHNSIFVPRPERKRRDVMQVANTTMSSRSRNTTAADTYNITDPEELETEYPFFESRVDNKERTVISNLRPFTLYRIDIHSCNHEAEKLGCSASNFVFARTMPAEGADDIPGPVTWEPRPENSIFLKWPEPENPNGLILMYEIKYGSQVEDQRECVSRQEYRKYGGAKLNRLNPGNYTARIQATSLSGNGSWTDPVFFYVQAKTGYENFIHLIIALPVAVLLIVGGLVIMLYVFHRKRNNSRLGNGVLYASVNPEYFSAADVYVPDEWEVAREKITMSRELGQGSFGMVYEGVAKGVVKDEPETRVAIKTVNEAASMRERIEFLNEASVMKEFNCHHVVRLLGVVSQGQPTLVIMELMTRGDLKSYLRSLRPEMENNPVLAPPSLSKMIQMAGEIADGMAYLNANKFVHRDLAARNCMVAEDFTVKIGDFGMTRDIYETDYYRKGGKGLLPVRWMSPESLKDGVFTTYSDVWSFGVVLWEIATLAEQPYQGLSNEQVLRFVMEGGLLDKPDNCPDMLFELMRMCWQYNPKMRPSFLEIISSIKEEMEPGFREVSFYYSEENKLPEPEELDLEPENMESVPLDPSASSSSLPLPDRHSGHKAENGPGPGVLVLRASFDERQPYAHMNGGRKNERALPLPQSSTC

With `COc1cc(OC[C@H]2CCCN2)ccc1Nc1ncc(OC)c(-c2cnc3ccccn23)n1` [Example 96, 4-imidazo[1,2-a]pyridin-3-yl-5-methoxy-N-[2-methoxy-4-[[(2R)-pyrrolidin-2-yl]methoxy]phenyl]pyrimidin-2-amine], the IC50 under setting [1] turned out to be 127 nM.
As for `COc1cc(OC[C@H]2CCCN2C(C)=O)ccc1Nc1ncc(OC)c(-c2cnc3ccccn23)n1` [Example 114, 1-[(2R)-2-[[4-[(4-imidazo[1,2-a]pyridin-3-yl-5-methoxy-pyrimidin-2-yl)amino]-3-methoxy-phenoxy]methyl]pyrrolidin-1-yl]ethanone], the IC50 under setting [1] turned out to be 13 nM.
Compound `COc1cc(N2CC3CNCC(C2)O3)ccc1Nc1ncc(Cl)c(-c2cnc3c(F)cccn23)n1` [Example 183, 5-chloro-4-(8-fluoroimidazo[1,2-a]pyridin-3-yl)-N-[2-methoxy-4-(9-oxa-3,7-diazabicyclo[3.3.1]nonan-7-yl)phenyl]pyrimidin-2-amine] displayed an IC50 of 7 nM.
For `COc1cc(C2CCN(C(C)=O)CC2)ccc1Nc1ncc(C#N)c(-c2cnn3ccccc23)n1` [Example 239, 2-[4-(1-acetyl-4-piperidyl)-2-methoxy-anilino]-4-pyrazolo[1,5-a]pyridin-3-yl-pyrimidine-5-carbonitrile], the half-inhibitory concentration (IC50) under setting [1] is 110 nM.
As for `COc1cc(C2CCN(C(=O)[C@@H](C)O)CC2)ccc1Nc1ncc(Cl)c(-c2cnc3ccccn23)n1` [Example 28.2, (2R)-1-[4-[4-[(5-chloro-4-imidazo[1,2-a]pyridin-3-yl-pyrimidin-2-yl)amino]-3-methoxy-phenyl]-1-piperidyl]-2-hydroxy-propan-1-one], under setting [1], the IC50 came to 6 nM.
Still for that read-out and setting: with `COc1cc(C2CCNCC2)ccc1Nc1ncc(Cl)c(-c2cnc3ccc(F)cn23)n1` [Example 247, 5-chloro-4-(6-fluoroimidazo[1,2-a]pyridin-3-yl)-N-[2-methoxy-4-(4-piperidyl)phenyl]pyrimidin-2-amine] the figure was 3 nM; with `COc1cc(C(=O)N2CCN(CCO)CC2)ccc1Nc1ncc(Cl)c(-c2cnc3ccccn23)n1` [Example 32, [4-[(5-chloro-4-imidazo[1,2-a]pyridin-3-yl-pyrimidin-2-yl)amino]-3-methoxy-phenyl]-[4-(2-hydroxyethyl)piperazin-1-yl]methanone], 19 nM.
The same measure, in the same setting: to `COc1cc(N2CCN(C(=O)[C@@H](C)O)CC2)ccc1Nc1ncc(Cl)c(-c2cnn3ccccc23)n1` [Example 131, (2R)-1-[4-[4-[(5-chloro-4-pyrazolo[1,5-a]pyridin-3-yl-pyrimidin-2-yl)amino]-3-methoxy-phenyl]piperazin-1-yl]-2-hydroxy-propan-1-one] belongs 3 nM; to `COc1cc(N2CCNCC2)ccc1Nc1ncc(C)c(-c2cnc3ccccn23)n1` [Example 98, 4-imidazo[1,2-a]pyridin-3-yl-N-(2-methoxy-4-piperazin-1-yl-phenyl)-5-methyl-pyrimidin-2-amine], 22 nM.
The same measure, in the same setting: with `COc1cc(N2CCN(CCO)CC2)ccc1Nc1ncc(F)c(-c2cnc3c(F)cccn23)n1` [Example 195, 2-[4-[4-[[5-fluoro-4-(8-fluoroimidazo[1,2-a]pyridin-3-yl)pyrimidin-2-yl]amino]-3-methoxy-phenyl]piperazin-1-yl]ethanol] the figure was 33 nM; with `COc1cc(N2CCN(CCO)CC2)ccc1Nc1ncc(Br)c(-c2cnc3ccccn23)n1` [Example 115, 2-[4-[4-[(5-bromo-4-imidazo[1,2-a]pyridin-3-yl-pyrimidin-2-yl)amino]-3-methoxy-phenyl]piperazin-1-yl]ethanol], 5 nM.
In the case of `COc1cc(CN2CCCN(C)CC2)ccc1Nc1ncc(Cl)c(-c2cnc3ccccn23)n1` [Example 21.11, 5-chloro-4-imidazo[1,2-a]pyridin-3-yl-N-[2-methoxy-4-[(4-methyl-1,4-diazepan-1-yl)methyl]phenyl]pyrimidin-2-amine], under setting [1], the IC50 amounted to 23 nM.

A word on the IC50: it is the midpoint of a concentration-inhibition curve.
